Consider one compound from patent US20040034084A1, “Methods for using JNK inhibitors for treating or preventing disease-related wasting” (Celgene Corporation, priority 2002, published 2004).

One may read the IC50 as the concentration at which inhibition is half-maximal.

Data set [1] in a line: Brain-blood plasma distribution in vivo. Set-up: species or system Sprague-Dawley rats. As to conditions: rat. The method, then:
5-Amino-anthra(9,1-cd)isothiazol-6-one was administered intravenously (10 mg/kg) into the veins of Sprague-Dawley rats. After 2 hr, blood samples were obtained from the animals and their vascular systems were perfused with approximately 100 mL of saline to rid their brains of blood. The brains were removed from the animals, weighed, and homogenized in a 50 mL conical tube containing 10 equivalents (w/v) of methanol/saline (1:1) using a Tissue Tearer (Fischer Scientific). The homogenized material was extracted by adding 600 μL of cold methanol to 250 μL of brain homogenate vortexed for 30 sec and subjected to centrifugation for 5 min. After centrifugation, 600 μL of the resulting supernatant was transferred to a clean tube and evaporated at room temperature under reduced pressure to provide a pellet. The resulting pellet was reconstituted in 250 μL of 30% aqueous methanol to provide a brain homogenate analysis sample. A plasma analysis sample was obtained using the brain homogenate analysis sample procedure described above by substituting plasma for brain homogenate. Standard plasma samples and standard brain homogenate samples containing known amounts of 5-amino-anthra(9,1-cd)isothiazol-6-one were also prepared by adding 5 μL of serial dilutions (50:1) of a solution of 5-amino-anthra(9,1-cd)isothiazol-6-one freshly prepared in cold ethanol to 250 μL of control rat plasma (Bioreclamation of Hicksville, N.Y.) or control brain homogenate. The standard plasma samples and standard brain homogenate samples were then subjected to the same extraction by protein precipitation, centrifugation, evaporation, and reconstitution procedure used for the brain homogenate to provide brain homogenate standard analysis samples and plasma standard analysis samples. The brain homogenate analysis samples, plasma analysis samples, and standard analysis samples were analyzed and compared using HPLC by injecting 100 μL of a sample onto a 5 μm C-18 Luna column (4.6 mm×150 mm, commercially available from Phenomenex of Torrance, Calif.) and eluting at 1 mL/min with a linear gradient of 30% aqueous acetonitrile containing 0.1% trifluoroacetic acid to 90% aqueous acetonitrile containing 0.1% trifluoroacetic acid over 8 minutes and holding at 90% aqueous acetonitrile containing 0.1% trifluoroacetic acid for 3 min. with absorbance detection at 450 nm. […] The concentration of 5-amino-anthra(9,1-cd) isothiazol-6-one in the brain and plasma was determined by comparing HPLC chromatograms obtained from the brain homogenate analysis samples and plasma analysis samples to standard curves constructed from analysis of the brain homogenate standard analysis samples and the plasma standard analysis samples, respectively. […]

For another data set, the target named is T1, MEK6 (Homo sapiens, UniProt P52564).
T1 sequence (P52564 1-334): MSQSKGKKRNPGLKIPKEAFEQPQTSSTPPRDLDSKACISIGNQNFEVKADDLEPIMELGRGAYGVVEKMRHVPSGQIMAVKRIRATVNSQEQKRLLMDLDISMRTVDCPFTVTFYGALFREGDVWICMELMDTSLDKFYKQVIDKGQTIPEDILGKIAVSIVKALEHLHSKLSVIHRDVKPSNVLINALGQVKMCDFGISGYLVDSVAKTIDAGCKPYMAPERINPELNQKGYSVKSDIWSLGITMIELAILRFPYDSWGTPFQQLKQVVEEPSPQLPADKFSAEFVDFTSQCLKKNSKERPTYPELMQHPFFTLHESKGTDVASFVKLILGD
The experiment in a line: Selectivity for JNK: protein kinase panel, MEK6. It counts as biochemical. The protocol: 5-Amino-anthra(9,1-cd)isothiazol-6-one was also assayed for its inhibitory activity against several protein kinases, listed below, using techniques known to those skilled in art (See, e.g., Protein Phosphorylation, Sefton & Hunter, Eds., Academic Press, pp. 97-367, 1998).

For the next data set, the target named is T2, His6-JNK3 (Homo sapiens, UniProt P53779).
T2 construct: His6 (N)
T2 sequence (P53779 whole entry): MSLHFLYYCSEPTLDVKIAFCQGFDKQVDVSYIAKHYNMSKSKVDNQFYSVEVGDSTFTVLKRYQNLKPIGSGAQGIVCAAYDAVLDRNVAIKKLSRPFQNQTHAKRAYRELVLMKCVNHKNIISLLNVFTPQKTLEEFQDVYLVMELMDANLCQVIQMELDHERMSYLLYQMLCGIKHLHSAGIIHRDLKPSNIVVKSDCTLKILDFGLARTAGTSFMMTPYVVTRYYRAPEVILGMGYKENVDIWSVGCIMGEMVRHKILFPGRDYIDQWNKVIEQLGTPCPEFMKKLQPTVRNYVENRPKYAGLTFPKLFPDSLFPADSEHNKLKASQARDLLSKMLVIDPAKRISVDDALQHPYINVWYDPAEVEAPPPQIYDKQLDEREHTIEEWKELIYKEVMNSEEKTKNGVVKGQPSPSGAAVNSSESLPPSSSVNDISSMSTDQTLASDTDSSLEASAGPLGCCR
The experiment in a line: JNK assay (c-Jun phosphorylation), JNK3. It counts as biochemical. The note with it: read-out: IC50 for JNK3 (c-Jun phosphorylation reduced to 50% of control). The protocol: (§1) To 10 μL of 5-amino-anthra(9,1-cd)isothiazol-6-one in 20% DMSO/80% dilution buffer containing of 20 mM HEPES (pH 7.6), 0.1 mM EDTA, 2.5 mM magnesium chloride, 0.004% Triton ×100, 2 μg/mL leupeptin, 20 mM β-glycerolphosphate, 0.1 mM sodium vanadate, and 2 mM DTT in water was added 30 μL of 50-200 ng His6-JNK1, JNK2, or JNK3 in the same dilution buffer. The mixture was pre-incubated for 30 minutes at room temperature. Sixty microliter of 10 μg GST-c-Jun(1-79) in assay buffer consisting of 20 mM HEPES (pH 7.6), 50 mM sodium chloride, 0.1 mM EDTA, 24 mM magnesium chloride, 1 mM DTT, 25 mM PNPP, 0.05% Triton ×100, 11 μM ATP, and 0.5 μCi γ-32P ATP in water was added and the reaction was allowed to proceed for 1 hour at room temperature. The c-Jun phosphorylation was terminated by addition of 150 μL of 12.5% trichloroacetic acid. After 30 minutes, the precipitate was harvested onto a filter plate, diluted with 50 μL of the scintillation fluid and quantified by a counter. The IC50 values were calculated as the concentration of 5-amino-anthra(9,1-cd)isothiazol-6-one at which the c-Jun phosphorylation was reduced to 50% of the control value. Compounds that inhibit JNK preferably have an IC50 value ranging 0.01-10 μM in this assay. 5-Amino-anthra(9,1-cd)isothiazol-6-one has an IC50 according to this assay of 1 μM for JNK2 and 400 nM for JNK3.

The target in the next data set is T3, His6-JNK2 (Homo sapiens, UniProt P45984).
T3 construct: His6 (N)
T3 sequence (P45984 whole entry): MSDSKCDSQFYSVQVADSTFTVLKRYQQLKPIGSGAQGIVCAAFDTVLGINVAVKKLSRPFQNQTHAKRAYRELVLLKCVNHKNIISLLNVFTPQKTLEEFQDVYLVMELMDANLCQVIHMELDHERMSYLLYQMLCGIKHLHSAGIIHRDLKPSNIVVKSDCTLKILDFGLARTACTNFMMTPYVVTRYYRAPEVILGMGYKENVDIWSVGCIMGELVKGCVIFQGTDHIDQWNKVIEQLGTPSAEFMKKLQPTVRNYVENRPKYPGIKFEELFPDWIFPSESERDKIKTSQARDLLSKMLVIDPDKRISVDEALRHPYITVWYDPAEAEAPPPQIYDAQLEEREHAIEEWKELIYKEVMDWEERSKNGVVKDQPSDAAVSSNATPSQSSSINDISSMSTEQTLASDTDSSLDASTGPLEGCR
The experiment in a line: JNK assay (c-Jun phosphorylation), JNK2. The data set is classed as biochemical. As to conditions: read-out: IC50 for JNK2 (c-Jun phosphorylation reduced to 50% of control). The method, then: as §1

Regarding `Nc1ccc2snc3c2c1C(=O)c1ccccc1-3` [5-amino-anthra(9,1-cd)isothiazol-6-one], in data set [1] (Sprague-Dawley, iv, 10 mg/kg intravenously, 2 hr post-dose, assuming 1 g brain tissue equivalent to 1 mL plasma, read-out: Brain-plasma concentration ratio), the Kp at 2 h was around 9. Moreover, in data set [1] (Sprague-Dawley, plasma, iv, 10 mg/kg intravenously, 2 hr post-dose), the concentration at 2 h is around 7 µM. The Brain-drug concentration entry in data set [1] (10 mg/kg intravenously, 2 hr post-dose) is reported as “approximately 65 nmole/g”. Also, the Blood-brain barrier crossing result in data set [1] (following intravenous administration) is recorded as “crosses the blood-brain barrier to a significant extent”. Further, the values for the IC50 at MEK6, at His6-JNK3 and at His6-JNK2 were above 30 µM, 400 nM and 1000 nM, respectively.
